# Values quoted from earlier work as cited in patent US7670617B2, “Sequential drug delivery systems” (CIMA Labs Inc., priority 2001, dated 2010).
# Conditions: in animals
row,Structure (SMILES),BIOAVAILABILITY (%)
1,CC(NC(C)(C)C)C(=O)c1cccc(Cl)c1.Cl (centres unmarked) [Bupropion:HCI],5%-20%

# Conditions: Nasal Spray
row,Structure (SMILES),BIOAVAILABILITY (%)
1,O=C(O)C(O)C(O)C(=O)O.Oc1ccc2c(c1)[C@@]13CCCC[C@@]1(O)[C@@H](C2)N(CC1CCC1)CC3 [Butorphanol Tartrate],60%-70%

# Same assay, conditions: in vivo
row,Structure (SMILES),BIOAVAILABILITY (%)
1,CCOC(=O)[C@H](CCc1ccccc1)N[C@H]1CCc2ccccc2N(CC(=O)O)C1=O.Cl [Benazepril:HCI],37%
2,CC(C)C[C@H]1C(=O)N2CCC[C@H]2[C@]2(O)O[C@](NC(=O)[C@@H]3C=C4c5cccc6[nH]c(Br)c(c56)C[C@H]4N(C)C3)(C(C)C)C(=O)N12 [Bromocriptine],28%
3,COc1ccccc1OCCNCC(O)COc1cccc2[nH]c3ccccc3c12 (centres unmarked) [Carvedilol],25-35%
4,COc1cc2nc(N3CCN(C(=O)C4COc5ccccc5O4)CC3)nc(N)c2cc1OC (centres unmarked) [Doxazosin],65%
5,CN(C)CCC=C1c2ccccc2COc2ccccc21 [Doxepin],27 ± 10%
6,CCOC(=O)[C@H](CCc1ccccc1)N[C@@H](C)C(=O)N1CCC[C@H]1C(=O)O [Enalapril],41-60%
7,CC(C)(C)NC(=O)[C@H]1CC[C@H]2[C@@H]3CC[C@H]4NC(=O)C=C[C@]4(C)[C@H]3CC[C@]12C [Finasteride],63%
8,CC(CCc1ccccc1)NCC(O)c1ccc(O)c(C(N)=O)c1 (centres unmarked) [Labetalol],18 ± 5%
9,CCOC(=O)[C@H](CCc1ccccc1)N[C@@H](C)C(=O)N1Cc2cc(OC)c(OC)cc2C[C@H]1C(=O)O [Moexipril],13%
10,Oc1ccc2c3c1O[C@H]1[C@@H](O)CC[C@@]4(O)[C@@H](C2)N(CC2CCC2)CC[C@]314 [Nalbuphine],16 (±8) %
11,CN1CCCC1c1cccnc1 (centres unmarked) [Nicotine],16.7 (±8.6%)
12,Cc1nccn1CC1CCc2c(c3ccccc3n2C)C1=O.Cl (centres unmarked) [Ondansetron:HCI],55%
13,CC(C)NCC(O)COc1cccc2ccccc12.Cl (centres unmarked) [Propranolol:HCI],26%
14,CCOC(=O)[C@H](CCc1ccccc1)N[C@@H](C)C(=O)N1Cc2ccccc2C[C@H]1C(=O)O.Cl [Quinapril•HCI],60%
15,CC(C)(C)NCC(O)c1cc(O)cc(O)c1 (centres unmarked) [Terbutaline sulphate],30-70%

# Conditions: not given
row,Structure (SMILES),pKa
1,CN1CCc2cccc3c2[C@H]1Cc1ccc(O)c(O)c1-3 [Apomorphine],7
2,CC(C)C[C@H]1C(=O)N2CCC[C@H]2[C@]2(O)O[C@](NC(=O)[C@@H]3C=C4c5cccc6[nH]c(Br)c(c56)C[C@H]4N(C)C3)(C(C)C)C(=O)N12 [Bromocriptine],4.9
3,CC(C)(C)NC(=O)[C@@H]1C[C@@H]2CCCC[C@@H]2CN1C[C@@H](O)[C@H](Cc1ccccc1)NC(=O)[C@H](CC(N)=O)NC(=O)c1ccc2ccccc2n1 [Saquinavir],7
